# Results: paper PMC12649225, “Machine Learning-Identified Potent Antimicrobial Peptides Against Multidrug-Resistant Bacteria and Skin Infections” (Antibiotics, 2025)
# Residues, ends and D or L forms follow the SMILES beside them.
# Experiments:
# [1] = test system: A. baumannii RUH875; experiment: SYTOX Green membrane permeabilization assay; type: cell-based, Acinetobacter baumannii; settings: 1- and 2-fold the LC99.9_2h concentrations; over 90 min; RPMI, 1 μM SYTOX Green
# Experimental: (§1) Control samples were exposed to RPMI only. As a positive control, heat-killed bacteria were incubated at 95 °C for 10 min to induce maximum membrane permeabilization. Fluorescence (excitation: 485 nm, emission: 520 nm) was monitored every minute for 90 min at 37 °C using a […] plate reader (Ortenberg, Germany), with peptides and positive controls added after the third cycle. Background fluorescence (SYTOX Green alone) was subtracted from all values. All assays were performed in triplicate and repeated twice independently.
# [2] = test system: S. aureus JAR060131; experiment: SYTOX Green membrane permeabilization assay; type: cell-based, Staphylococcus aureus; settings: RPMI, 1 μM SYTOX Green; 90 min; 37 °C
# Experimental: as §1
# [3] = test system: K. pneumoniae LUH15104; type: cell-based
# Experimental: (§2) The bacterial strains used in this study included S. aureus JAR060131 [54] and the MDR ESKAPE pathogens Enterococcus faecium LUH15122, S. aureus LUH14616, Klebsiella pneumoniae LUH15104, A. baumannii RUH875 [55], Pseudomonas aeruginosa LUH15103, Enterobacter cloacae LUH15114, and the colistin-resistant Escherichia coli LUH15117. Before each experiment, bacteria from frozen stocks were cultured at 37 °C for 18–24 h on sheep blood agar plates (BioMérieux, Marcy-l’Étoile, France). All strains were then cultured from colonies either in tryptic soy broth (TSB; Oxoid, Basingstoke, UK) for A. baumannii, S. aureus, and E. faecium, or in brain heart infusion broth (BHI; Oxoid) for K. pneumoniae, P. aeruginosa, E. cloacae, and E. coli at 37 °C with shaking at 120 rpm for 18–24 h. Subsequently, bacteria were cultured to mid-logarithmic phase in the media described above at 37 °C with shaking at 120 rpm for 3 h. Bacteria were then washed twice with PBS and diluted to the required inoculum suspension concentration in Roswell Park Memorial Institute (RPMI)-1640 medium containing 20 mM HEPES and L-glutamine but without sodium bicarbonate (Sigma-Aldrich; hereafter referred to as RPMI), based on optical density at 620 nm. RPMI was selected because it supports bacterial growth without impairing AMP activity.
# (§3) Bactericidal activity was assessed as described by de Breij et al.. Briefly, mid-logarithmic phase bacterial cultures were diluted to a final concentration of 1 × 10^7 colony-forming units (CFU)/mL in RPMI. Then, 10 µL was added to a final volume of 100 µL in RPMI (final concentration: 1 × 10^6 CFU/mL). Cultures were exposed to peptides either in RPMI or RPMI supplemented with 50% (v/v) human plasma (hereafter referred to as 50% plasma), obtained from four healthy volunteers after informed consent, frozen after collection, and pooled (Sanquin, Amsterdam, The Netherlands). Assays were performed in duplicate using round-bottom polypropylene microtiter plates (Costar, Arlington, VA, USA) and repeated three times. In the initial screening phase (Table 1, Table 2 and Table S1), peptide solutions of 1, 10, and 100 μM (final concentration) were tested against A. baumannii RUH875 and S. aureus JAR060131 in RPMI and in 50% plasma. After this selection process, two lead candidates, their RI variants, and reference peptides were tested with a final concentration range of 0.12 to 120 µM (two-fold dilutions) in RPMI and in 50% plasma (Table 3). The peptides were also tested against ESKAPE pathogens, with Synthetic Antimicrobial and Antibiofilm Peptide (SAAP)-148 as a reference peptide (Table 4).RPMI or 50% plasma served as no-treatment controls. After 2 and 18 h of incubation at 37 °C with shaking at 120 rpm in a humidified environment, the numbers of viable bacteria were quantified. Bactericidal activity was expressed as the lethal concentration 99.9% (LC99.9), defined as the lowest peptide concentration that killed ≥99.9% of bacteria within 2 h (LC99.9_2h) or 18 h (LC99.9_18h) compared to the initial inoculum.
# [4] = test system: S. aureus JAR060131; type: cell-based
# Experimental: as §2, §3
# [5] = test system: E. coli LUH15117; type: cell-based
# Experimental: as §2, §3
# [6] = test system: E. cloacae LUH15114; type: cell-based
# Experimental: as §2, §3
# [7] = test system: S. aureus LUH14616; type: cell-based
# Experimental: as §2, §3
# [8] = test system: P. aeruginosa LUH15103; type: cell-based
# Experimental: as §2, §3
# [9] = test system: A. baumannii RUH875; type: cell-based
# Experimental: as §2, §3
# [10] = test system: E. faecium LUH15122; type: cell-based
# Experimental: as §2, §3
# [11] = test system: MDR ESKAPE pathogens; experiment: Bactericidal activity (LC99.9), statements for the whole panel; type: cell-based; settings: range over species
# Experimental: as §2, §3
smiles,measurement,setting,value
CC[C@@H](C)[C@@H](NC(=O)[C@@H](CC(C)C)NC(=O)[C@@H](CCCCN)NC(=O)[C@@H](CCCCN)NC(=O)[C@H](NC(=O)[C@@H](Cc1c[nH]c2ccccc12)NC(=O)[C@@H](CCCNC(=N)N)NC(=O)[C@@H](Cc1ccccc1)NC(=O)[C@@H](CC(C)C)NC(C)=O)C(C)C)C(=O)N[C@H](CCCCN)C(=O)N[C@@H](C(=O)N[C@H](Cc1c[nH]c2ccccc12)C(=O)N[C@H](CCCNC(=N)N)C(=O)N[C@H](CCCCN)C(N)=O)C(C)C [GDST-045-RI] (HELM PEPTIDE1{[ac].[dL].[dF].[dR].[dW].[dV].[dK].[dK].[dL].[dI].[dK].[dV].[dW].[dR].[dK].[am]}$$$$V2.0; N-terminus and C-terminus assumed),"SYTOX fluorescence intensity, A. baumannii",[1],fluorescence levels similar to heat-killed controls
same,"Concentrations causing rapid rise in SYTOX fluorescence, S. aureus",[2],1.88 to 3.75 µM
same,LC99.9 K. pneumoniae LUH15104 50% Plasma 2 h,"[3]; LUH15104, 2 h",15 µM
same,LC99.9 K. pneumoniae LUH15104 RPMI 2 h,"[3]; LUH15104, 2 h",15 µM
same,LC99.9 K. pneumoniae LUH15104 50% Plasma 18 h,"[3]; LUH15104, 18 h",7.5 µM
same,LC99.9 K. pneumoniae LUH15104 RPMI 18 h,"[3]; LUH15104, 18 h",7.5 µM
same,LC99.9 S. aureus JAR060131 50% Plasma 2 h,"[4]; JAR060131, 2 h",3.75 µM
same,LC99.9 S. aureus JAR060131 RPMI 2 h,"[4]; JAR060131, 2 h",1.88 µM
same,LC99.9 S. aureus JAR060131 50% Plasma 18 h,"[4]; JAR060131, 18 h",1.88 µM
same,LC99.9 E. coli LUH15117 RPMI 2 h,"[5]; LUH15117, 2 h",3.75 µM
same,LC99.9 E. coli LUH15117 RPMI 18 h,"[5]; LUH15117, 18 h",1.88 µM
same,LC99.9 E. cloacae LUH15114 50% Plasma 2 h,"[6]; LUH15114, 2 h",120 µM
same,LC99.9 E. cloacae LUH15114 RPMI 2 h,"[6]; LUH15114, 2 h",15 µM
same,LC99.9 E. cloacae LUH15114 50% Plasma 18 h,"[6]; LUH15114, 18 h",30 µM
same,LC99.9 E. cloacae LUH15114 RPMI 18 h,"[6]; LUH15114, 18 h",3.75 µM
same,LC99.9 S. aureus LUH14616 50% Plasma 2 h,"[7]; LUH14616, 2 h",15 µM
same,LC99.9 S. aureus LUH14616 RPMI 2 h,"[7]; LUH14616, 2 h",0.94 µM
same,LC99.9 S. aureus LUH14616 50% Plasma 18 h,"[7]; LUH14616, 18 h",1.88 µM
same,LC99.9 S. aureus LUH14616 RPMI 18 h,"[7]; LUH14616, 18 h",0.94 µM
same,LC99.9 P. aeruginosa LUH15103 50% Plasma 2 h,"[8]; LUH15103, 2 h",30 µM
same,LC99.9 P. aeruginosa LUH15103 RPMI 2 h,"[8]; LUH15103, 2 h",3.75 µM
same,LC99.9 P. aeruginosa LUH15103 50% Plasma 18 h,"[8]; LUH15103, 18 h",30 µM
same,LC99.9 P. aeruginosa LUH15103 RPMI 18 h,"[8]; LUH15103, 18 h",3.75 µM
same,LC99.9 A. baumannii RUH875 50% Plasma 2 h,"[9]; RUH875, 2 h",1.88 µM
same,LC99.9 A. baumannii RUH875 50% Plasma 18 h,"[9]; RUH875, 18 h",0.94 µM
same,LC99.9 E. faecium LUH15122 50% Plasma 2 h,"[10]; LUH15122, 2 h",1.88 µM
same,LC99.9 E. faecium LUH15122 RPMI 2 h,"[10]; LUH15122, 2 h",0.94 µM
same,LC99.9 E. faecium LUH15122 50% Plasma 18 h,"[10]; LUH15122, 18 h",3.75 µM
same,LC99.9 E. faecium LUH15122 RPMI 18 h,"[10]; LUH15122, 18 h",0.94 µM
same,Concentrations killing ESKAPE pathogens in 50% plasma within 2 h,"[11]; 50% plasma, 2 h",0.94 to 120 µM
same,Concentrations killing ESKAPE pathogens in 50% plasma after 18 h,"[11]; 50% plasma, 18 h",0.94 to 30 µM
same,Concentrations killing ESKAPE pathogens in RPMI within 2 h,"[11]; RPMI, 2 h",0.94 to 15 µM
